{
  "source": "paper PMC12865225",
  "about": "(Clinical and Translational Science, 2026)",
  "key": {"[1]": {"target": "T1, OATP2B1 (Homo sapiens, UniProt O94956)", "T1 construct": "expressed in transfected cells; host or cells: HEK293 (recombinant baculovirus-mediated transduction)", "T1 sequence (O94956 1-709)": "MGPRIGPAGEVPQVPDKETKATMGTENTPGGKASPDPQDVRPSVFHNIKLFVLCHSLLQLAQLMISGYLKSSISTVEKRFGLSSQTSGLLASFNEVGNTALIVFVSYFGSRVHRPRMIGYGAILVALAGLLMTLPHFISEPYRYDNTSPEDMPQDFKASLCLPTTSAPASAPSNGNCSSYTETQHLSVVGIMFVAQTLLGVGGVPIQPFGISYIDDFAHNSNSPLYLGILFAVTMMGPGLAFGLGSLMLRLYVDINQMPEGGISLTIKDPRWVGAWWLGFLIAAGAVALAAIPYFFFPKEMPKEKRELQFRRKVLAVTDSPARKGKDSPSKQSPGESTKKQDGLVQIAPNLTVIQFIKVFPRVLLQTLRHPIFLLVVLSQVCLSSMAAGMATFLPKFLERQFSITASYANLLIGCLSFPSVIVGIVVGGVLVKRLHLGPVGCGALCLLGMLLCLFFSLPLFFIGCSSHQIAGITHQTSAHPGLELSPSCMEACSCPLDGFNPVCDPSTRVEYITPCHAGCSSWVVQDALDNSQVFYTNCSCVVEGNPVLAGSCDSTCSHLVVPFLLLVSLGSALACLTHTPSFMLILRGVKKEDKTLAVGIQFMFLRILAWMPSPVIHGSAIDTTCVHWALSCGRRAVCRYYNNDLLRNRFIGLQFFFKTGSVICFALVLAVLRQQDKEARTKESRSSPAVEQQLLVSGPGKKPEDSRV", "assay": "OATP2B1 inhibition, rosuvastatin uptake into transporter-expressing HEK293 cells", "assay_type": "cell-based", "details": "for Calculated R-value OATP2B1 (hepatic): R = 1 + (I in,max,u/IC50), FDA cut-off ≥ 1.1; for Calculated R-value OATP2B1 (intestinal): R = I gut/IC50, FDA cut-off ≥ 10", "procedure": "(§1) The human transporters OATP1B1, OATP1B3, OATP2B1, and OAT1‐OAT4 and a negative control protein (enhanced yellow fluorescent protein, eYFP) were transiently expressed in human embryonic kidney 293 (HEK293) cells by recombinant baculovirus‐mediated transduction. Baculoviruses carrying human genes for the transporters were prepared as reported previously. HEK293 cells were cultured in DMEM containing 10% fetal bovine serum at 37°C and 5% CO2 and passaged two to three times per week. For the transport studies, 0.05 × 10^6 cells for 48‐well plates (OATPs) or 0.06 × 10^6 cells for 24‐well plates (OATs) were seeded onto cell‐culture treated well plates coated with poly‐D‐lysine. After 1 day, cells were transduced to produce recombinant proteins by changing media to DMEM containing 30 μL (48‐well plates) or 60 μL (24‐well plates) of recombinant baculovirus and 3 mM (OATs) or 5 mM (OATPs) sodium butyrate in a total media volume of 500 μL. The cells were cultured for a further 2 days before the transport assays.\nFor the transport studies, media were removed and cells were washed once with warm transport uptake buffer (TP‐buffer—pH 7.4 HBSS with 25 mM HEPES and 4 mM sodium bicarbonate). Each experiment included triplicate (OATP) or duplicate (OAT) samples for every test condition. The uptake was started by removing liquid from wells and applying warm TP‐buffer (200 μL for 24‐well plates or 125 μL for 48‐well plates) containing a test compound to cells. Transport assays were terminated after a pre‐specified incubation time (reported in figure legends) by removing substrate solution and washing cells three times with cold TP‐buffer (300 μL for 48‐well plates and 400 μL for 24‐well plates). For the liquid chromatography mass spectrometry (LC–MS) analysis, compounds were extracted from cells with 125 μL (48‐well plates) or 250 μL (24‐well plates) of an ultrapure‐water solution containing 75% methanol and 0.1% formic acid, shaking at 250 RPM for 30 min. […] Samples were transferred to well plates, centrifuged at 3000 g for 30 min, and transferred to a new well plate for the analysis.\n(§2) In the OATP inhibition assays, inhibitors in warm TP‐buffer were directly applied to cells after media removal, followed by a 30‐min preincubation step in the presence of inhibitors. […] OAT1 and OAT3 cells were lysed with 200 μL of 1 M sodium hydroxide for 10 min, and 150 μL of these samples were transferred to a black well plate for fluorescein quantification. […]\n(§3) For the inhibition data analysis, the average of measured concentrations in the control cells was subtracted from the average of measured concentrations in transporter‐expressing cells for each inhibitor concentration and then normalized to the vehicle sample that represents 100% transport activity. […]"}, "[2]": {"target": "T2, P-gp (Homo sapiens, UniProt P08183)", "T2 construct": "made in house; host or cells: membrane vesicles from HEK293 cells expressing the transporter", "T2 sequence (P08183 whole entry)": "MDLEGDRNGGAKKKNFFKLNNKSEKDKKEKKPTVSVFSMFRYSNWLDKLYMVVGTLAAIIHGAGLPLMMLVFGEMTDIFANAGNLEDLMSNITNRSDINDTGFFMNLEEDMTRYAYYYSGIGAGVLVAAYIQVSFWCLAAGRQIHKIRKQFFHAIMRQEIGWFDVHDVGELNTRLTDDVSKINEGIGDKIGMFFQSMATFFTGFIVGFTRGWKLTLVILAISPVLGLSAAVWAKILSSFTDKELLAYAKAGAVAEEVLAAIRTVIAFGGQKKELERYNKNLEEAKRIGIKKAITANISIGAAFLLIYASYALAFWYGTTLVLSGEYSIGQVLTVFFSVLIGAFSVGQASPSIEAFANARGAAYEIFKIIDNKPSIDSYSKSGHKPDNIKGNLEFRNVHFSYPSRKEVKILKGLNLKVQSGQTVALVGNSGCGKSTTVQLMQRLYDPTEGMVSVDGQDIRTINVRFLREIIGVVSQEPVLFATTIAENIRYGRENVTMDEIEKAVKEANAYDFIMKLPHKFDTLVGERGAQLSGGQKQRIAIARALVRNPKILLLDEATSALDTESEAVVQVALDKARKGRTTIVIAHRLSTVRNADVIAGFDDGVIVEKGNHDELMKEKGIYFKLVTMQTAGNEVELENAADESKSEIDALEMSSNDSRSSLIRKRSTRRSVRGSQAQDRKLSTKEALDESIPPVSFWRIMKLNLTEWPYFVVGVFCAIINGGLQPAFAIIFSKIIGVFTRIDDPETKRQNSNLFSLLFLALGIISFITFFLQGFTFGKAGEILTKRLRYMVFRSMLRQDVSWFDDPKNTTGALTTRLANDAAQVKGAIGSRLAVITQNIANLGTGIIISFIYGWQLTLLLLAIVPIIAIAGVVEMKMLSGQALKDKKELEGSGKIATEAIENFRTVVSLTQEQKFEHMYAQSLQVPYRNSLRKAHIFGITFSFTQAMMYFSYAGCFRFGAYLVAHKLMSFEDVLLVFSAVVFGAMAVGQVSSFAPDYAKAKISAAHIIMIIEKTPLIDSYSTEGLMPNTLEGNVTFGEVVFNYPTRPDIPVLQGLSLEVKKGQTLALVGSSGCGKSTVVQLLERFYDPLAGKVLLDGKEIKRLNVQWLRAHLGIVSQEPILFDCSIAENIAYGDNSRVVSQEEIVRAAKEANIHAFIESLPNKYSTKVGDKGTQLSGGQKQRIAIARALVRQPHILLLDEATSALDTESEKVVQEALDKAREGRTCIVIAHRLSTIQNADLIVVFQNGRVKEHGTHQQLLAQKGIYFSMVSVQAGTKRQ", "assay": "P-gp inhibition, N-methyl-quinidine transport in HEK293 membrane vesicles", "assay_type": "biochemical", "details": "for Calculated R-value P-gp: R = I gut/IC50, FDA cut-off ≥ 10", "procedure": "Membrane vesicles, 5 μL (7.5 μg of total protein), prepared as previously reported, were aliquoted to wells of a conical‐shaped 96‐well plate. The plate was incubated for 10 min at +37°C before the initiation of transport by adding 25 μL of TS‐buffer (10 mM Tris, 250 mM sucrose, pH adjusted to 7.4 with HEPES) containing magnesium chloride (10 mM final in the reaction), adenosine triphosphate (ATP) or adenosine monophosphate (AMP), 4 mM final in the reaction, and the transporter substrate and inhibitor. Each experiment included triplicate samples for both ATP and AMP samples. The concentrations of rosuvastatin and N‐methyl‐quinidine were 1 μM in the BCRP and P‐gp vesicle inhibition assays, respectively. The transport reaction times were 1 and 2 min for BCRP and P‐gp, respectively. […] The transport reactions were quenched by adding 200 μL of cold TS‐buffer to each well and transferring the samples to a 96‐multiwell 1.0 μm glass fiber filter plate (Merck Millipore, Darmstadt, Germany) kept under vacuum. Wells were further washed four times with cold TS‐buffer, after which the plate was dried under vacuum. The compounds were eluted from the plate by applying 100 μL of 75% methanol containing 0.1% formic acid to each well and incubating at 250 RPM for 30 min before centrifuging the samples to an analysis plate at 2800 g for 2 min. For the rosuvastatin samples, the elution solvent contained rosuvastin‐d6 as the internal standard.\nFor the inhibition data analysis, the average of measured concentrations in the control cells was subtracted from the average of measured concentrations in transporter‐expressing cells for each inhibitor concentration and then normalized to the vehicle sample that represents 100% transport activity. Equation (1) was fit to the inhibition data. In Equation (1), Inhibition represents the percent inhibition of transporter‐mediated uptake at an inhibitor concentration of I and IC50 is the half‐maximal inhibitory concentration. (1) Inhibition=100%−100%/1+10^logIC50−logI"}, "[3]": {"test_system": "T3, OAT2", "T3 construct": "expressed in transfected cells; host or cells: HEK293 (recombinant baculovirus-mediated transduction)", "assay": "OAT2 inhibition, methotrexate uptake into HEK293 cells", "assay_type": "cell-based, human", "details": "200 μM inhibitor, 34 nM methotrexate", "procedure": "as §1, with “After 1 day, cells were transduced to produce recombinant proteins by changing media to DMEM containing 30 μL (48‐well plates) or 60 μL (24‐well plates) of recombinant baculovirus and 3 mM (OATs) or 5 mM (OATPs) sodium butyrate in a total media volume of 500 μL. The cells were cultured for a further 2 days before the transport assays.” left out\nas §2, §3"}},
  "note": "Marks after values point to notes of the source that are not given here.",
  "data": [
    {"smiles": "Cc1onc(-c2c(F)cccc2Cl)c1C(=O)N[C@@H]1C(=O)N2[C@@H]1SC(C)(C)[C@@H]2C(=O)O", "note": "[Flucloxacillin]", "values": [
      {"measurement": "Calculated R-value OATP2B1 (hepatic)", "setting": "[1]", "value": 1.2},
      {"measurement": "Calculated R-value OATP2B1 (intestinal)", "setting": "[1]", "value": 137},
      {"measurement": "IC50", "setting": "[2]; 1 μM N-methyl-quinidine, 2 min, membrane vesicles", "value": "≥ 833", "unit": "µM"},
      {"measurement": "Calculated R-value P-gp", "setting": "[2]", "value": "11 ^b"},
      {"measurement": "reduction of P-gp activity", "setting": "[2]; highest tested concentration of 2100 μM", "value": 65, "unit": "%"},
      {"measurement": "inhibition of OAT2-mediated transport of methotrexate", "setting": "[3]", "value": "neither compound substantially inhibited"}
    ]},
    {"smiles": "Cc1onc(-c2c(Cl)cccc2Cl)c1C(=O)N[C@@H]1C(=O)N2[C@@H]1SC(C)(C)[C@@H]2C(=O)O", "note": "[Dicloxacillin]", "values": [
      {"measurement": "Calculated R-value OATP2B1 (hepatic)", "setting": "[1]", "value": 1.2},
      {"measurement": "Calculated R-value OATP2B1 (intestinal)", "setting": "[1]", "value": 240},
      {"measurement": "Calculated R-value P-gp", "setting": "[2]", "value": "33 ^b"},
      {"measurement": "inhibition of P-gp transport at the highest concentration", "setting": "[2]; highest concentration", "value": "almost completely inhibited"},
      {"measurement": "inhibition of OAT2-mediated transport of methotrexate", "setting": "[3]", "value": "neither compound substantially inhibited"}
    ]}
  ]
}
